This is an account of results in patent US20260216348A1, “IRAK DEGRADATION AGENT AND USE THEREOF” (Increland, priority 2023, published 2026).

Assay [1] deals with CIA-induced rheumatoid arthritis model. As to the kind of experiment: CIA-induced rheumatoid arthritis model. It is filed as in vivo, DBA/1J mice. Conditions: QD, Model 12.31 ± 2.97, Mean ± SD, n = 7. As for the experimental part: 1. DBA/1J mice, male, SPF grade, were pre-acclimatized in the animal facility for one week. 2. On day 1, for the primary immunization, 2 mg/mL bovine type II collagen was mixed thoroughly with an equal volume of complete Freund's adjuvant on ice using a homogenizer until fully emulsified. 100 μL of the collagen emulsion (final concentration 1 mg/mL) was intradermally injected at 2 cm from the base of the mouse tail. Medical iodophor was used to disinfect the tail after injection to prevent tail necrosis, which was conducted for 3 consecutive days. 3. On day 21, bovine type II collagen solution was thoroughly mixed and emulsified with an equal volume of Freund's incomplete adjuvant, using the same method as the primary immunization. 4. On day 26, LPS was administered intraperitoneally at a dose of 50 μg/animal to induce disease. 5. On day 28, the affected mice were scored according to Table 33 and the diameter of their ankle joints was measured. Mice were randomly grouped and treated with medication based on their scores and ankle diameter.

Assay [2] deals with IMQ psoriasis model. Briefly: IMQ (imiquimod)-induced psoriasis model. The format is in vivo, BALB/c mice. Conditions: QD, Mean ± SD, n = 7; for PASI Score d 6: Model 8.85 ± 1.66; for ΔSkin Thickness Change (μm) d 6: Model 80.95 ± 6.16. As for the experimental part: Male BALB/c mice, aged 6-8 weeks, were randomly divided into 9 groups after 1 week of acclimatization: blank control group, imiquimod model group (IMQ group, corresponding to the model groups in FIGS. 1 and 2), clobetasol propionate cream group (CLO group), TYKI (BMS-986165) group, IRAK4 protein degrader KT-474 (from patent WO2020113233) group (100 mg/kg), and the compound of the present disclosure (at an appropriate dose), with 6-7 mice in each group. One day before modeling, the hair on the backs of the mice was removed with depilatory cream, with a depilated area of 2×2 cm^2. On the day of modeling, IMQ cream was used for modeling, and the corresponding drugs were administered intragastrically for treatment. The compound of the present disclosure (at an appropriate dose) was administered intragastrically once daily, and IMQ cream was applied to the hairless area on the back and left ear of mice 2 h after the first administration. […] The blank group and the IMQ group were administered with vehicle intragastrically twice daily (in the morning and evening), with an 8-h interval between the two intragastric administrations. At 2 h after the first intragastric administration, vaseline and IMQ cream were applied topically to the depilated back and ears of the mice, respectively. The dosage of IMQ cream administered to the depilated area on the back and the left ear was 80 mg and 10 mg, respectively, and the mice in each group were administered the cream for 5 consecutive days.
Reference was made to the Psoriasis Area and Severity Index (PASI) scoring criteria. The psoriasis, erythema, and thickness of skin lesions on the back were scored from 0 to 4 every morning from day 1 of modeling, with the scoring criteria as shown in Table 28. The 3 were added up to obtain a total score, i.e., a total PASI score. The ear thickness of the left ear of the mouse was measured using a digital vernier caliper three times every morning from day 1 of modeling, to obtain a mean value.

Consider `CN(C)c1cc2nn([C@H]3CC[C@H](CN4CC[C@@H](n5cc6cc(C7CCC(=O)NC7=O)c(F)cc6n5)[C@@H](F)C4)CC3)cc2cc1NC(=O)c1cnn2cccnc12` (some centres unmarked) [TM-135], for which the “DAI Score d 42” value in assay [1] (15 mg/kg) was determined as 11.17 ± 2.36; in assay [1] (45 mg/kg) it was 9.60 ± 3.33.

On to `CN(C)c1cc2nn([C@H]3CC[C@H](CN4CCC(n5cc6c(F)cc(N7CCC(=O)NC7=O)cc6n5)CC4)CC3)cc2cc1NC(=O)c1cnn2cccnc12` [TM-174], for which the results for the “PASI Score d 6” value in assay [2] (3 mg/kg), in assay [2] (10 mg/kg) and in assay [2] (30 mg/kg) were 6.69 ± 1.07, 7.31 ± 1.87 and 4.38 ± 1.24, respectively. Besides, the figures for the “ΔSkin Thickness Change (μm) d 6” value in assay [2] (3 mg/kg), in assay [2] (10 mg/kg) and in assay [2] (30 mg/kg) were 58.10 ± 17.31 μm, 59.29 ± 18.23 μm and 43.81 ± 16.66 μm, respectively.

`CN(C)c1cc2nn([C@H]3CC[C@H](CN4C[C@@H](n5cc6cc(N7CCC(=O)NC7=O)ccc6n5)[C@@H](F)C4)CC3)cc2cc1NC(=O)c1cnn2cccnc12` [TM-205]: the results for the “PASI Score d 6” value in assay [2] (3 mg/kg), in assay [2] (10 mg/kg) and in assay [2] (30 mg/kg) were 7.29 ± 1.99, 6.75 ± 1.28 and 4.84 ± 0.80, respectively. The “ΔSkin Thickness Change (μm) d 6” value in assay [2] (3 mg/kg) was found to be 65.71 ± 10.23 μm; in assay [2] (10 mg/kg), 52.62 ± 9.59 μm; in assay [2] (30 mg/kg), 53.10 ± 12.95 μm.
